Experimental findings from patent US10759836B2, “Cancer vaccine compositions and methods of use thereof” (UNIVERSITY OF WASHINGTON, priority 2014, dated 2020) are described below.

Entries after “also recorded” stand apart in the source; their conditions may differ.

Test [1] deals with MC-38 cells (murine adenocarcinoma). Description: MC-38 tumor implant model: tumor volume after peptide vaccination. Format: in vivo, C57Bl/6 mice. The settings on record: for effect on tumor volume: MC-38 tumor implant in C57Bl/6 mice, vs CFA/IFA; for peptide efficacy, MC-38 + B6 (Tumor Implant): summary table, Yes/No. How it is done:
MC-38 tumor implant in-vivo experiments. At 6 weeks of age, mice were immunized in CFA/IFA, PBS, and vaccine groups. Each group received subcutaneous injections (100 ul PBS, 50 ul CFA with 50 ul PBS, 50 ug per peptide with 50 ul CFA) once every 10-14 days for a total of three doses. See Table 9 for peptides included in vaccine compositions. CFA was replaced with IFA for the second and third vaccines. Two weeks after the final vaccine, we subcutaneously implanted 4×10^4 MC-38 cells (murine adenocarcinoma), and measured tumor growth with Vernier calipers 2-3 times per week. Tumor volume was calculated as length×width×height×π/6, which is the standard volume calculation of an ellipsoid. Mice were sacrificed when tumor size in control mice reached greater than 1000 mm^3.

The subject of test [2] is colon tumor burden in AOM mice (Azoxymethane + FVB). Description: AOM mouse model: colon tumor count after peptide vaccination. Format: in vivo. The settings on record: for effect on colon tumor burden (tumor count): AOM treated FVB mice, vs control group (CFA/IFA; PBS for IGF1R, PRL3, RCAS1); for peptide efficacy, Azoxymethane + FVB (Induced): summary table, Yes/No. How it is done: AOM mouse in-vivo experiments. At 6 weeks of age, FVB mice were immunized in CFA/IFA, PBS, and vaccine groups. Each group received subcutaneous injections (100 ul PBS, 50 ul CFA with 50 ul PBS, 50 ug per peptide with 50 ul CFA) once every 10-14 days for a total of three doses and a booster was given every 4-5 weeks after the third vaccine. See Table 7 for peptides included in vaccine compositions. CFA was replaced with IFA after the first vaccine. Seven days after the third vaccine, mice were injected with Azoxymethane (AOM) at 10 mg/kg, twice weekly for 6 weeks. At 26 weeks of age, all mice were sacrificed and tumors in the colon were counted.

Test [3] concerns small bowel tumor burden in APCmin mice. Nature of the test: APCmin mouse model: small bowel tumor count after peptide vaccination. The test is classed as in vivo. The following applies: for effect on small bowel tumor burden (tumor count): APCmin mice, vs CFA/IFA control, 50 ug per peptide s.c.; for peptide efficacy, APCmin Small Bowel (Spontaneous): summary table, Yes/No. How it is done:
(§1) Offspring from APCmin were genotyped by PCR for the presence of the Min mutation using primers as follows: Wild-Type: 5′-[…]-3′ (SEQ ID NO: 46), Common 5′-[…]-3′ (SEQ ID NO: 47), Mutant: 5′-[…]-3′ (SEQ ID NO: 48). Both male and female mice testing positive for the Min mutation were included in the study and randomized into groups.
(§2) At 4-6 weeks of age, mice were immunized in CFA/IFA, PBS, and vaccine groups. Each group received subcutaneous injections (100 ul PBS, 50 ul CFA with 50 ul PBS, 50 ug per peptide with 50 ul CFA) once every 7-10 days for a total of three doses and one booster was given 4-5 weeks after the third vaccine. See Table 5 for peptides included in vaccine compositions. CFA was replaced with IFA after the first vaccine. All mice were sacrificed at 14 to 17 weeks of age, the gastrointestinal tracts were collected and tumors counted.

Test [4] has the same test system. Description: APCmin survival study: small bowel tumor count at sacrifice. Format: in vivo. The settings on record: boosters every 4-5 weeks, vs CFA/IFA. How it is done:
At 4-6 weeks of age, mice were immunized with CFA/IFA, PBS, and vaccine groups. Each group received subcutaneous injections (100 ul PBS, 50 ul CFA with 50 ul PBS, 50 ug per peptide with 50 ul CFA) once every 7-10 days for a total of three doses and a booster vaccine was given every 4-5 weeks after the third vaccine. See Table 6 for peptides included in vaccine compositions. CFA was replaced with IFA after the first vaccine. […] At sacrifice, small intestines were collected and small bowel tumors counted.

In test [5] the test system is colon tumor burden in APCmin mice. Nature of the test: APCmin mouse model: colon tumor count after peptide vaccination. The following applies: for effect on colon tumor burden (tumor count): APCmin mice, vs CFA/IFA control, 50 ug per peptide s.c.; for peptide efficacy, APCmin Colon (Spontaneous): summary table, Yes/No. Format: in vivo. Here is the method:
as §1, §2

As for “CDC25B: peptide vaccine of CDC25B #38 (p130-150) and #39 (p405-427), 50 ug per peptide with CFA/IFA (chain 1 QAIQAASRIIRNEQFAIRRFQ; chain 2 VDGKHQDLKYISPETMVALLTGK; with CFA/IFA adjuvant)”, in test [1], the “effect on tumor volume” value is given as “significantly inhibits” and the “peptide efficacy, MC-38 + B6 (Tumor Implant)” value (shortened to “peptide efficacy, MC-38 + B6”) was “Yes”. For the same substance, in test [2], the “effect on colon tumor burden (tumor count)” value (from here on “effect on colon tumor burden”) was “vaccine efficacy; also recorded: significantly inhibits” and the “peptide efficacy, Azoxymethane + FVB (Induced)” value (“peptide efficacy … (Induced)” below) is recorded as “Yes”. In test [3], the “effect on small bowel tumor burden (tumor count)” value was “significantly inhibits; also recorded: vaccine efficacy” and the “peptide efficacy, APCmin Small Bowel (Spontaneous)” value was “Yes”. Moreover, the “effect on small bowel tumor burden (tumor count)” value in test [4] is “does not significantly inhibit”. Besides, in test [5], the “effect on colon tumor burden” value is “does not significantly inhibit; also recorded: lack of CDC25B vaccine efficacy” and the “peptide efficacy, APCmin Colon (Spontaneous)” value (“peptide efficacy, APCmin Colon” below) was “No”.
Regarding “COX2: peptide vaccine of COX-2 #32, #33, #34, 50 ug per peptide with CFA/IFA (chain 1 FKGFWNVVNNIPFLRN; chain 2 GLVPGLMMYATIWLREH; chain 3 GEVGFQIINTASIQSLIC; with CFA/IFA adjuvant)”, in test [1], the “effect on tumor volume” value is “significantly inhibits” and the “peptide efficacy, MC-38 + B6” value is recorded as “Yes”. In addition, in test [2], the “effect on colon tumor burden” value was “vaccine efficacy; also recorded: significantly inhibits” and the “peptide efficacy … (Induced)” value is listed as “Yes”. Moreover, in test [3], the “effect on small bowel tumor burden (tumor count)” value is recorded as “significantly inhibits; also recorded: vaccine efficacy” and the “peptide efficacy, APCmin Small Bowel (Spontaneous)” value is given as “Yes”. Also, the “effect on small bowel tumor burden (tumor count)” value in test [4] is reported as “does not significantly inhibit”. Moreover, in test [5], the “effect on colon tumor burden” value was “does not significantly inhibit; also recorded: lack of COX2 vaccine efficacy” and the “peptide efficacy, APCmin Colon” value is recorded as “No”.
Consider “IGF1R: peptide vaccine of IGF1R #1, #2, #3, #4, 50 ug per peptide with CFA/IFA (chain 1 VVTGYVKIRHSHALV; chain 2 TQYAVYVKAVTLTMV; chain 3 LVIMLYVFHRKRNNS; chain 4 GMAYLNANKFVHRDL; with CFA/IFA adjuvant)”, for which, in test [1], the “effect on tumor volume” value was “does not significantly inhibit” and the “peptide efficacy, MC-38 + B6” value is reported as “No”. Also, in test [2], the “effect on colon tumor burden” value is recorded as “lack of IGF1R vaccine efficacy; also recorded: does not significantly inhibit” and the “peptide efficacy … (Induced)” value is given as “No”. Moreover, in test [3], the “effect on small bowel tumor burden (tumor count)” value was “vaccine efficacy; also recorded: significantly inhibits” and the “peptide efficacy, APCmin Small Bowel (Spontaneous)” value is listed as “Yes”. For the same substance, in test [5], the “effect on colon tumor burden” value is on record as “lack of IGF1R vaccine efficacy; also recorded: does not significantly inhibit” and the “peptide efficacy, APCmin Colon” value was “No”.
